Laboratory results published in patent US6812258B2, “Cancer treatment composition and method using natural plant essential oils” (Ecosmart Technologies, Inc., priority 1998, dated 2004).
Where two headings read alike, the source gives them in different places.

Legend:
[1] = test system: Human Epithelial Breast Cancer Cells (MCF-7); test: Antiproliferative effect, 3H-thymidine incorporation in MCF-7 cells with and without estrogen; type: cell-based; conditions: for activity at 50 µg/mL: Homo sapiens, MCF7, 24 h
Experimental: (§1) MCF-7 cells were cultured in growth medium supplemented with 10% fetal bovine serum (FBS). At 85% confluence, cells were sub-cultured in 5% FBS serum stripped medium, phenol red free for 24 hours prior to the treatment of the test chemical. After 24 hours of treatment cell proliferation was measured using ^3H-thymidine incorporation. These test chemicals were tested in the presence and absence of estrogen to address if they have anti-estrogenic activity in addition to their antiproliferative effect. The study was done in triplicate and a control was used with solvent only. Control received solvent only at <0.1% ethanol. Estrogen was tested at 1 nM (=0.27 ng E2/ml). Exemplary plant essential oil compounds were tested at 50 ug/ml.
as §1, with “(0.27” for “(=0.27”, “Plant” for “Exemplary plant”

[2] = test system: MCF-7 cells; test: Dose-response effect on E2-induced cell growth, viable cell count (trypan blue, haemocytometer); type: cell-based, human
Experimental: MCF-7 cells were cultured in growth medium supplemented with 10% fetal bovine serum (FBS). At 85% confluence, cells were sub-cultured in 6 well petri-dishes and supplemented with 5% FBS serum stripped medium, phenol red free for 24 hours prior to the treatment of different concentrations of the test chemicals. After 5 days of treatment cells were trypsinized, collected using Eppendorf microcentrifuge. The cell pellets were resuspended in 1% trypan blue and three aliquots (10 ul each) of the viable cell suspension were counted using a haemocytometer assay. Each sample was then counted three times and the data shown is the average of three counts. These test chemicals were tested in the presence of 10 nM estrogen (=2.7 ng estrogen/ml). Two wells per test concentration were used. This experiment was repeated two times. Control received solvent only at <0.1% ethanol.

[3] = Table 1, estrogen alone 1 nM, 24 hours treatment
[4] = Table 2, estrogen alone 1 nM, 24 hours treatment
[5] = read-out: 3H-thymidine incorporation % of control value, Table 1, test chemical 50 ug/ml + estrogen 1 nM, 24 hours treatment
[6] = read-out: 3H-thymidine incorporation % of control value, Table 1, test chemical 50 ug/ml alone, 24 hours treatment
[7] = Table 1, test chemical 50 ug/ml + estrogen 1 nM, 24 hours treatment
[8] = Table 1, test chemical 50 ug/ml alone, 24 hours treatment
[9] = test chemical 1 μg/ml + E2 10 nM, Day 5
[10] = test chemical 5 μg/ml + E2 10 nM, Day 5
[11] = test chemical 10 μg/ml + E2 10 nM, Day 5
[12] = test chemical 20 μg/ml + E2 10 nM, Day 5
[13] = Table 2, test chemical 50 ug/ml + estrogen 1 nM, 24 hours treatment
[14] = Table 2, test chemical 50 ug/ml alone, 24 hours treatment
[15] = Table 1, test chemical 50 ug/ml + estrogen 1 nM, 24 hours treatment, read-out: 3H-thymidine incorporation % of control value
[16] = Table 1, test chemical 50 ug/ml alone, 24 hours treatment, read-out: 3H-thymidine incorporation % of control value
[17] = test chemical 50 μg/ml + E2 10 nM, Day 5
[18] = Table 2, test chemical 50 ug/ml + estrogen 1 nM, 24 hours treatment, read-out: 3H-thymidine incorporation % of control value
[19] = Table 2, test chemical 50 ug/ml alone, 24 hours treatment, read-out: 3H-thymidine incorporation % of control value

Estrogen [reference compound] was tested, and the “3H-thymidine incorporation % of estrogen value” ([1]; Table 1, estrogen alone 1 nM (reference)) was 100%, the “3H-thymidine incorporation % of control value” [1, 3] was 158% and the “3H-thymidine incorporation dpm/ug protein” value [1, 3] was 658.6 dpm/ug protein. The “3H-thymidine incorporation % of estrogen value” ([1]; Table 2, estrogen alone 1 nM (reference)) was 100%, the “3H-thymidine incorporation % of control value” [1, 4] was 151.6% and the “3H-thymidine incorporation dpm/μg protein” value [1, 4] was 664.2 dpm/μg protein. The “Cell count % of control” value ([2]; E2 10 nM alone, Day 5) was 145%, the Cell count average ([2]; E2 10 nM alone, Day 5) was 32.0 × (10^4)/ml and the “Cell count well #1” value ([2]; E2 10 nM alone, Day 5) was 36 × (10^4)/ml. The “Cell count well #2” value ([2]; E2 10 nM alone, Day 5) was 28 × (10^4)/ml.
For `C=CCc1ccc(O)c(OC)c1` [Eugenol], the activity at 50 µg/mL [1, 5] was 70%, the activity at 50 µg/mL [1, 6] was 52% and the “3H-thymidine incorporation % of estrogen value” [1, 7] was 44%. For the same compound, the “3H-thymidine incorporation dpm/ug protein” value [1, 7] was 289.1 dpm/ug protein, the “3H-thymidine incorporation dpm/ug protein” value [1, 8] was 215.6 dpm/ug protein and the “protection against the E2-induced abnormal growth in cancer breast cells” value ([2]; 1 ug/ml, summary of Table 3) was 35%. For the same compound, the “% anti-E2” value [2, 9] was 25.00%, the Cell count average [2, 9] was 24.0 × (10^4)/ml and the “Cell count well #1” value [2, 9] was 19 × (10^4)/ml. For the same compound, the “Cell count well #2” value [2, 9] was 29 × (10^4)/ml, the “% anti-E2” value [2, 10] was 41.70% and the Cell count average [2, 10] was 19.0 × (10^4)/ml. The “Cell count well #1” value [2, 10] was 19 × (10^4)/ml, the “Cell count well #2” value [2, 10] was 19 × (10^4)/ml and the “% anti-E2” value [2, 11] was 50.00%. For the same compound, the Cell count average [2, 11] was 16.0 × (10^4)/ml, the “Cell count well #1” value [2, 11] was 18 × (10^4)/ml and the “Cell count well #2” value [2, 11] was 14 × (10^4)/ml. The “% anti-E2” value [2, 12] was 60.40%, the Cell count average [2, 12] was 13.0 × (10^4)/ml and the “Cell count well #1” value [2, 12] was 10 × (10^4)/ml. The “Cell count well #2” value [2, 12] was 16 × (10^4)/ml.
For `CC1=CC[C@H](C(C)C)C=C1` [α-phellandrene], the “3H-thymidine incorporation % of control value” [1, 13] was 145.0%, the “3H-thymidine incorporation % of estrogen value” [1, 13] was 96% and the “3H-thymidine incorporation dpm/μg protein” value [1, 13] was 635.3 dpm/μg protein. The “3H-thymidine incorporation % of control value” [1, 14] was 79.5% and the “3H-thymidine incorporation dpm/μg protein” value [1, 14] was 348.4 dpm/μg protein.
`COC(=O)c1ccccc1O` [Methyl salicylate] was tested, and the activity at 50 µg/mL [1, 15] was 168%, the activity at 50 µg/mL [1, 16] was 107% and the “3H-thymidine incorporation % of estrogen value” [1, 7] was 106%. The “3H-thymidine incorporation dpm/ug protein” value [1, 7] was 693.9 dpm/ug protein and the “3H-thymidine incorporation dpm/ug protein” value [1, 8] was 444.0 dpm/ug protein.
For `O=C/C=C\c1ccccc1` [cinnamic aldehyde], the “control against the E2-induced abnormal growth in cancer breast cells” value ([2]; 50 ug/ml, summary of Table 3) was “approximately 96%”, the “% anti-E2” value [2, 17] was 96.90% and the Cell count average [2, 17] was 01.0 × (10^4)/ml. The “Cell count well #1” value [2, 17] was 00 × (10^4)/ml and the “Cell count well #2” value [2, 17] was 02 × (10^4)/ml.
For `COc1ccccc1O` [Guaiacol], the activity at 50 µg/mL [1, 18] was 180%, the activity at 50 µg/mL [1, 19] was 163% and the “3H-thymidine incorporation % of estrogen value” [1, 13] was 119%. The “3H-thymidine incorporation dpm/μg protein” value [1, 13] was 788.8 dpm/μg protein and the “3H-thymidine incorporation dpm/μg protein” value [1, 14] was 712.3 dpm/μg protein.
`C/C=C/c1ccc(OC)cc1` [Trans-anethole] was tested, and the activity at 50 µg/mL [1, 15] was 142%, the activity at 50 µg/mL [1, 16] was 105% and the “3H-thymidine incorporation % of estrogen value” [1, 7] was 89%. The “3H-thymidine incorporation dpm/ug protein” value [1, 7] was 589.8 dpm/ug protein and the “3H-thymidine incorporation dpm/ug protein” value [1, 8] was 434.9 dpm/ug protein.
In the case of `C=C(C)[C@H]1CC=C(C)CC1` [R-(+)-Limonene], the “3H-thymidine incorporation % of control value” [1, 13] is reported as 119.3%, the “3H-thymidine incorporation % of estrogen value” [1, 13] is reported as 79% and the “3H-thymidine incorporation dpm/μg protein” value [1, 13] is reported as 522.6 dpm/μg protein. The “3H-thymidine incorporation % of control value” [1, 14] was 89.7% and the “3H-thymidine incorporation dpm/μg protein” value [1, 14] was 393.1 dpm/μg protein.
`CC12CCC(CC1)C(C)(C)O2` [Eucalyptol] was tested, and the activity at 50 µg/mL [1, 15] was 137%, the activity at 50 µg/mL [1, 16] was 96% and the “3H-thymidine incorporation % of estrogen value” [1, 7] was 86%. The “3H-thymidine incorporation dpm/ug protein” value [1, 7] was 568.0 dpm/ug protein and the “3H-thymidine incorporation dpm/ug protein” value [1, 8] was 398.0 dpm/ug protein.
With `OC/C=C/c1ccccc1` [Cinnamic alcohol] the activity at 50 µg/mL [1, 15] was 53%, the activity at 50 µg/mL [1, 16] was 4% and the “3H-thymidine incorporation % of estrogen value” [1, 7] was 34%. For the same compound, the “3H-thymidine incorporation dpm/ug protein” value [1, 7] was 220.8 dpm/ug protein and the “3H-thymidine incorporation dpm/ug protein” value [1, 8] was 18.5 dpm/ug protein.
With `OCc1ccccc1` [benzyl alcohol] the “% anti-E2” value [2, 17] was 35.40%, the Cell count average [2, 17] was 21.0 × (10^4)/ml and the “Cell count well #1” value [2, 17] was 24 × (10^4)/ml. For the same compound, the “Cell count well #2” value [2, 17] was 18 × (10^4)/ml.
For `Cc1ccc(C(C)C)c(O)c1` [Thymol], the activity at 50 µg/mL [1, 15] was 26%, the activity at 50 µg/mL [1, 16] was 23% and the “3H-thymidine incorporation % of estrogen value” [1, 7] was 16%. The “3H-thymidine incorporation dpm/ug protein” value [1, 7] was 108.2 dpm/ug protein, the “3H-thymidine incorporation dpm/ug protein” value [1, 8] was 97.3 dpm/ug protein and the “protection against the E2-induced abnormal growth in cancer breast cells” value ([2]; 5 ug/ml, summary of Table 3) was 40%. For the same compound, the “% anti-E2” value [2, 9] was 00.00%, the Cell count average [2, 9] was 32.0 × (10^4)/ml and the “Cell count well #1” value [2, 9] was 32 × (10^4)/ml. The “Cell count well #2” value [2, 9] was 32 × (10^4)/ml, the “% anti-E2” value [2, 10] was 40.60% and the Cell count average [2, 10] was 19.0 × (10^4)/ml. For the same compound, the “Cell count well #1” value [2, 10] was 20 × (10^4)/ml, the “Cell count well #2” value [2, 10] was 18 × (10^4)/ml and the “% anti-E2” value [2, 11] was 62.50%. For the same compound, the Cell count average [2, 11] was 12.0 × (10^4)/ml, the “Cell count well #1” value [2, 11] was 12 × (10^4)/ml and the “Cell count well #2” value [2, 11] was 12 × (10^4)/ml. For the same compound, the “% anti-E2” value [2, 12] was 62.50%, the Cell count average [2, 12] was 12.0 × (10^4)/ml and the “Cell count well #1” value [2, 12] was 10 × (10^4)/ml. For the same compound, the “Cell count well #2” value [2, 12] was 14 × (10^4)/ml.
`Cc1ccc(C(C)C)cc1` [p-cymene] was tested, and the activity at 50 µg/mL [1, 15] was 152%, the activity at 50 µg/mL [1, 16] was 101% and the “3H-thymidine incorporation % of estrogen value” [1, 7] was 96%. For the same compound, the “3H-thymidine incorporation dpm/ug protein” value [1, 7] was 632.0 dpm/ug protein and the “3H-thymidine incorporation dpm/ug protein” value [1, 8] was 419.0 dpm/ug protein.
In the case of `Cc1ccc(C(C)C)cc1O` [Carvacrol], the activity at 50 µg/mL [1, 5] is reported as 43%, the activity at 50 µg/mL [1, 6] is reported as 50% and the “3H-thymidine incorporation % of estrogen value” [1, 7] is reported as 28%. The “3H-thymidine incorporation dpm/ug protein” value [1, 7] was 181.7 dpm/ug protein and the “3H-thymidine incorporation dpm/ug protein” value [1, 8] was 207.2 dpm/ug protein.
With `CC1=CCC(C(C)(C)O)CC1` (stereo not drawn) [α-terpineol] the activity at 50 µg/mL [1, 15] was 164%, the activity at 50 µg/mL [1, 16] was 116% and the activity at 50 µg/mL [1, 18] was 145%. For the same compound, the activity at 50 µg/mL [1, 19] was 112%, the “3H-thymidine incorporation % of estrogen value” [1, 7] was 103% and the “3H-thymidine incorporation dpm/ug protein” value [1, 7] was 679.1 dpm/ug protein. The “3H-thymidine incorporation dpm/ug protein” value [1, 8] was 480.5 dpm/ug protein, the “3H-thymidine incorporation % of estrogen value” [1, 13] was 96% and the “3H-thymidine incorporation dpm/μg protein” value [1, 13] was 636.7 dpm/μg protein. For the same compound, the “3H-thymidine incorporation dpm/μg protein” value [1, 14] was 490.7 dpm/μg protein.
With `CC(C)=CCCC(C)CC=O` (stereo not drawn) [Citronellal] the activity at 50 µg/mL [1, 15] was 69%, the activity at 50 µg/mL [1, 16] was 20% and the “3H-thymidine incorporation % of estrogen value” [1, 7] was 43%. For the same compound, the “3H-thymidine incorporation dpm/ug protein” value [1, 7] was 284.0 dpm/ug protein and the “3H-thymidine incorporation dpm/ug protein” value [1, 8] was 85.2 dpm/ug protein.
